Reference: publication PMC3593252 (ACS medicinal chemistry letters, 2013)

Columns and labels:
[1] = tested on: acetylated tubulin, acetylated histone H3, acetylated histone H4 and p21 in MDA-MB-231 cell lines; assay: Western blot analysis in MDA-MB-231 cell line; format: cell-based
U937 xenograft = U937 xenograft model in vivo antitumor assay
[2] = tested on: class IIa HDACs (MDA-MB-231 cell lysate); conditions: class IIa-specific substrate, NA: not active at 10 μM

Compound: CCCC(CCC)C(=O)N[C@H](COc1ccc(/C=C/C(=O)NO)cc1OC)Cc1c[nH]c2ccccc12 [Compound 17a]
- effect on acetylated tubulin level ([1]; 1 μM, 3 h and 24 h, MDA-MB-231, compared with SAHA): almost no effect
- effect on histone H4 acetylation with time ([1]; 1 μM, 3 h vs 24 h, MDA-MB-231): maintained even increased
- effects on the levels of histone acetylation and p21 expression ([1]; 1 μM, MDA-MB-231, especially after 24 h of treatment): comparable even superior to SAHA
- cell permeability (by monitoring intracellular acetylation levels) ([1]; MDA-MB-231 cell line): cell permeable
- toxic signs in liver and spleen (U937 xenograft; U937 xenograft mice, once daily by oral gavage for three weeks): no evident toxic signs in liver and spleen
- body weight loss (U937 xenograft; mouse, in vivo, po): no significant body weight loss
- IC50 class IIa cell lysate [2]: no obvious inhibition
